Experimental data taken from US5256559A, “Methods and compositions for inhibiting platelet aggregation” (Biogen, Inc., priority 1991, dated 1993).
Like-named read-outs stand apart in the source and are kept apart here.

Tests used:
thrombin = thrombin (Homo sapiens, UniProt P00734); conditions: cited from earlier work
plasma = assay: activated partial thromboplastin time (APTT) of plasma from patients recovered from heparin-induced thrombocytopenia; set-up: species or system human; conditions: concentrations used in the platelet studies, FIGS. 12A and 12B
Description: We isolated whole blood from patients who had recovered from heparin-induced thrombocytopenia. We then centrifuged the blood at 4° C. for 15 minutes at 2,000× g in a Sorval rotor to obtain plasma. […] We measured APTT semi-automatically using a Coagamate XC (General Diagnostics Organon Teknika).

Substance | Kd (thrombin; overall tight binding, read-out: Kd, binding to thrombin in a 1:1 stoichiometric complex) | Kd (thrombin; site separate from the catalytic site, read-out: Kd, "low" affinity site on the thrombin molecule) | prolongation of APTT (plasma)
Hirudin | ~0.02 nM | ~10 nM | –
heparin | – | – | sufficient to prolong APTT into the desired therapeutic range
